Measured values published in patent publication US20130108688A1, “Delivery of H2 Antagonists” (Trustees of Boston University, priority 2004, published 2013).
Where two headings read alike, the source gives them in different places.

What was measured:
neutrophils = conditions: cited from earlier work
lymphocyte = conditions: cited from earlier work
[1] = AIDS patients; cited from earlier work
[2] = test system: P. gingivalis-induced periodontitis; conditions: for overall effect on tissue destruction and inflammatory cell infiltrate: local administration, three dosages; for linear distance from the epithelium to the alveolar crest border, ratio ligated/non-ligated sites (FIG. 6A): tip, middle and base of the crest
Description: In total, 21 New Zealand White rabbits (male, 3.5-4.0 kg each) were used in the experiments presented herein. Three different doses of Cimetidine (0.1, 1.0 and 10 μg/mL) have been prepared in paucilamellar liposomes (NOVASOME®). The animals were distributed as follows: Group A: Ligature alone (2 rabbits); Group B: Ligature+P. gingivalis (4 rabbits); Group C: Ligature+P. gingivalis+liposome (NOVASOME®) alone; Group D: Ligature+P. gingivalis+NOVASOME® preparation comprising 0.1 μg/mL of Cimetidine (4 rabbits); Group E: Ligature+P. gingivalis+NOVASOME® preparation comprising 1.0 μg/mL of Cimetidine (4 rabbits); and Group F: Ligature+P. gingivalis+NOVASOME® preparation comprising 10 μg/mL of Cimetidine (4 rabbits). All animals were purchased from Pine Acre Farms (Berthoud, Co.). The weight of the animals was strictly controlled and all animals weighed between 3.5-4.0 kg at the time of the initial experimentation. The animals were kept in individual cages, received water ad libitum, and were fed with specialized food (chow) for at least 5 days for acclimatization by experienced and licensed laboratory technicians at the Laboratory Animal Science Center at BUMC (BUMC LASC).
Ligature placement was performed under general anesthesia using ketamine (40 mg/kg) and xylazine (5 mg/kg) injections. […] Animals in group A received ligature only while animals in groups B, C, D, E, and F received P. gingivalis in addition to ligature placement.
P. gingivalis (strain A74376) was grown as previously described. Briefly, bacteria were cultured on agar plates containing trypticase soy agar supplemented with 0.5% (w/v) yeast extract, 5% defibrinated sheep red blood cells, […], and 1 μg/mL vitamin K. Plates were incubated for 3 days at 37° C. in jars anaerobically maintained through palladium catalyzed hydrogen/carbon dioxide envelopes (GasPak Plus, BD Microbiology Systems, Sparks, Md.). Colonies were randomly selected and anaerobically cultured overnight at 37° C. in Schaedler's broth supplemented with vitamin K and hemin. Bacteria numbers were spectrophotometrically determined at 600 nm and 10^9 CFU (0.8 OD) were mixed with carboxymethylcellulose to form a thick slurry, which was applied topically to the ligated teeth. The sutures were checked at every appointment, and lost or loose sutures were replaced.
Topical application was performed in animals of Groups D, E, and F every other day for 6 weeks under inhalation anesthesia using isoflurane (4.0 MAC/2.0 MAC). In these groups, Cimetidine was applied at three different doses. Cimetidine preparations were delivered in liposomes (NOVASOME®) that served as a vehicle for the H2 receptor antagonist. In order to see if liposome application alone would have any effect on the outcome, animals in Group C received liposomes without Cimetidine (i.e., NOVASOME® alone) in addition to ligature placement and P. gingivalis.
For histological analysis, the other half of the mandible was immersed in a volume of immunocal (Decal Corporation, Tallman, N.Y.) equal to at least 10 times the size of the section; the solution was replaced every 24 hours for 72 hours. Decalcification was assessed and confirmed by serial radiographs, which were taken every other day during two weeks.
The tissue was kept in this solution for 2-3 minutes, rinsed again in flowing deionized water for at least 3 minutes and kept in formalin for at least 24 hours before embedding in paraffin. Thin sections (5 μm) were cut and sections were conventionally stained with hematoxylin and eosin (H&E) to identify the cellular composition of the inflammatory infiltrates, and one hundred seventy (170) 5 μm-sections were stained with tartrate-resistant acid phosphatase (TRAP) to detect osteoclastic activity.
The data obtained by direct measurements during morphologic assessment and by histomorphometric measurements was used in multiple statistical analyses.

H2 receptor = conditions: via H2 receptor; cited from earlier work
[3] = test system: CD8 (cytotoxic/suppressor) and CD4 (helper/inducer) lymphocytes; conditions: 800 mg daily for 7 days; cited from earlier work
immunized normal cells = conditions: in vitro; optimum enhancement at lower dosage (10 μg) on first day; cited from earlier work
[4] = test system: P. gingivalis and ligature-induced experimental periodontitis
[5] = topical application to the oral cavity; cited from earlier work
[6] = test system: P. gingivalis-induced periodontitis; conditions: three doses; p<0.05

Row | Structure (SMILES) | superoxide (O2·-) and hydrogen peroxide (H2O2) production of neutrophils (neutrophils) | immunomodulating effect among H2 receptor antagonists (cimetidine, ranitidine, famotidine) (lymphocyte) | clinical symptoms of disease [1] | overall effect on tissue destruction and inflammatory cell infiltrate [2] | overall effect on tissue destruction and inflammatory cell infiltrate ([2]; listed as cimetidine) | total, ligatured and ratio of ligatured/non-ligatured areas of the alveolar crest (FIG. 6B) ([2]; three doses) | linear distance from the epithelium to the alveolar crest border, ratio ligated/non-ligated sites (FIG. 6A) ([2]; three doses) | linear distance from the epithelium to the alveolar crest border, ratio ligated/non-ligated sites (FIG. 6A) ([2]; three doses, listed as cimetidine) | bone loss and inflammatory changes, H&E stained sections (FIG. 4) ([2]; topical 0.1, 1.0 and 10 μg/mL, Groups D, E, F) | histamine-mediated increase in IL-α induced IL-6 synthesis (H2 receptor) | CD4 (helper/inducer) lymphocytes [3] | CD8 (cytotoxic/suppressor) lymphocytes [3] | primary humoral antibody response (immunized normal cells) | preventive effect on bone loss, quantitative analysis of defleshed bone specimens (FIG. 2) ([4]; all three doses vs liposome (NOVASOME) placebo, p<0.05, ANOVA) | gingival inflammation and bone destruction (macroscopic, FIG. 1) ([4]; topical, in NOVASOME liposomes, 0.1, 1.0 and 10 μg/mL, every other day for 6 weeks, Groups D, E, F) | resolution of intra- and peri-oral warts [5] | percentage of bone loss as calculated by Bjorn technique (FIG. 3 lower panel) [6]
1 | CN/C(=N/CCSCc1nc[nH]c1C)NC#N [Cimetidine] | reduces | strongest immunomodulating effect | significant improvement effect | prevent bone loss, inflammatory cell infiltration, and connective tissue destruction | inhibits P. gingivalis-elicited leukocyte migration toward the site of infection | no significant differences between the cimetidine groups | significantly increased (p<0.05) distances compared to the Cimetidine-treated groups | almost similar, insignificant (p>0.05) mean ratio values | prevent both bone loss and inflammatory changes | completely reverse | corresponding increase | decrease | markedly influence | statistically significant | prevented the gingival inflammation and bone destruction in a significant and comparable way with no apparent dose-dependent effect | complete resolution | prevents the destructive effects of P. gingivalis-induced periodontitis
2 | C/N=C(\S)NCCSCc1[nH]cnc1C [metiamide] |  |  |  |  |  |  |  |  |  |  |  |  | markedly influence |  |  |  | 
